In ChEMBL document CHEMBL1138653, “Screening of antimicrobial activity of diarylamines in the 2,3,5-trimethylbenzo[b]thiophene series: a structure-activity evaluation study” (2004):
≈ marks a conversion by molar mass, not a printed value. Calls of active or inactive are those of the source. The calls are words filed in the database; no cut-off is given here.

Assays:
Bacillus subtilis [1] = experiment: inhibition of Bacillus subtilis was measured by zone diameter; type: functional
Bacillus cereus [2] = experiment: Minimal inhibitory concentration against Bacillus cereus; type: functional
Pseudomonas aeruginosa [3] = experiment: Minimal inhibitory concentration against Pseudomonas aeruginosa; Not active; type: functional, organism-based
Escherichia coli [4] = experiment: Minimal inhibitory concentration against Escherichia coli; Not active; type: functional, organism-based
Bacillus subtilis [5] = experiment: Minimal inhibitory concentration against Bacillus subtilis; type: functional
Bacillus cereus [6] = experiment: inhibition of Bacillus cereus was measured by zone diameter; type: functional
Candida albicans [7] = experiment: Minimal inhibitory concentration against Candida albicans; Not active; type: functional, organism-based
Candida albicans [8] = experiment: Minimal inhibitory concentration against Candida albicans; type: functional
Candida albicans [9] = experiment: inhibition of Candida albicans was measured by zone diameter; type: functional
Escherichia coli [10] = experiment: Diameter of the inhibition zone of Escherichia coli upon administration of compound; type: functional
Pseudomonas aeruginosa [11] = experiment: Minimal inhibitory concentration against Pseudomonas aeruginosa; type: functional
Pseudomonas aeruginosa [12] = experiment: inhibition of Pseudomonas aeruginosa was measured by zone diameter; type: functional
Escherichia coli [13] = experiment: Minimal inhibitory concentration against Escherichia coli; type: functional
Bacillus subtilis [14] = experiment: Minimal inhibitory concentration against Bacillus subtilis (CECT 498) strain; Not active; type: functional, organism-based
Candida albicans [15] = experiment: Minimal inhibitory concentration against Candida albicans (CECT 1394) strain; Not active; type: functional, organism-based
Pseudomonas aeruginosa [16] = experiment: Minimal inhibitory concentration against Pseudomonas aeruginosa (CECT 108) strain; Not active; type: functional, organism-based
Escherichia coli [17] = experiment: Minimal inhibitory concentration against Escherichia coli (CECT 101) strain; Not active; type: functional, organism-based
Bacillus cereus [18] = experiment: Minimal inhibitory concentration against Bacillus cereus (CECT 148) strain; Not active; type: functional, organism-based
Escherichia coli [19] = experiment: inhibition of Escherichia coli was measured by zone diameter; type: functional

Cc1cc2c(C)c(C)sc2cc1Br
Inhibition (Bacillus subtilis [1]): 18 mm | MIC (Bacillus cereus [2]): 1000 µg/mL (≈ 3920 µM) | MIC (Pseudomonas aeruginosa [3]): inactive | MIC (Escherichia coli [4]): inactive | MIC (Bacillus subtilis [5]): 500 µg/mL (≈ 1960 µM) | Inhibition (Bacillus cereus [6]): 12 mm | MIC (Candida albicans [7]): inactive

Cc1cc2c(C)c(C)sc2cc1Nc1ccccc1F
Inhibition (Bacillus subtilis [1]): 8 mm | MIC (Bacillus cereus [2]): 200 µg/mL (≈ 701 µM) | MIC (Escherichia coli [4]): inactive | MIC (Bacillus subtilis [5]): 50 µg/mL (≈ 175 µM) | Inhibition (Bacillus cereus [6]): 9 mm

COc1ccc(Nc2cc3sc(C)c(C)c3cc2C)cc1
Inhibition (Bacillus subtilis [1]): 19 mm | MIC (Bacillus cereus [2]): 100 µg/mL (≈ 336 µM) | MIC (Candida albicans [8]): 12.5 µg/mL (≈ 42 µM) | Inhibition (Candida albicans [9]): 6 mm | Inhibition (Escherichia coli [10]): 4 mm | MIC (Pseudomonas aeruginosa [11]): 1000 µg/mL (≈ 3360 µM) | MIC (Bacillus subtilis [5]): 50 µg/mL (≈ 168 µM) | Inhibition (Pseudomonas aeruginosa [12]): 8 mm | MIC (Escherichia coli [13]): 1000 µg/mL (≈ 3360 µM) | Inhibition (Bacillus cereus [6]): 4 mm

Cc1ccc2sc(C)c(C)c2c1
MIC (Bacillus subtilis [14]): inactive | MIC (Candida albicans [15]): inactive | MIC (Pseudomonas aeruginosa [16]): inactive | MIC (Escherichia coli [17]): inactive | MIC (Bacillus cereus [18]): inactive

COc1ccc(Nc2cc3sc(C)c(C)c3cc2C)cc1OC
Inhibition (Bacillus subtilis [1]): 10 mm | MIC (Bacillus cereus [2]): 200 µg/mL (≈ 611 µM) | MIC (Candida albicans [8]): 25 µg/mL (≈ 76.3 µM) | MIC (Escherichia coli [4]): inactive | Inhibition (Candida albicans [9]): 8 mm | MIC (Pseudomonas aeruginosa [11]): 1000 µg/mL (≈ 3050 µM) | MIC (Bacillus subtilis [5]): 200 µg/mL (≈ 611 µM) | Inhibition (Pseudomonas aeruginosa [12]): 10 mm | Inhibition (Bacillus cereus [6]): 24 mm

Cc1cc2c(C)c(C)sc2cc1Nc1ccc(F)cc1
Inhibition (Bacillus subtilis [1]): 10 mm | MIC (Bacillus cereus [2]): 200 µg/mL (≈ 701 µM) | MIC (Pseudomonas aeruginosa [3]): inactive | MIC (Escherichia coli [4]): inactive | MIC (Bacillus subtilis [5]): 200 µg/mL (≈ 701 µM) | Inhibition (Bacillus cereus [6]): 12 mm

Cc1cc2c(C)c(C)sc2cc1Nc1ccccc1
Inhibition (Bacillus subtilis [1]): 8 mm | MIC (Bacillus cereus [2]): 200 µg/mL (≈ 748 µM) | Inhibition (Escherichia coli [10]): 4 mm | MIC (Pseudomonas aeruginosa [11]): 200 µg/mL (≈ 748 µM) | MIC (Bacillus subtilis [5]): 200 µg/mL (≈ 748 µM) | Inhibition (Pseudomonas aeruginosa [12]): 16 mm | MIC (Escherichia coli [13]): 200 µg/mL (≈ 748 µM) | Inhibition (Bacillus cereus [6]): 18 mm

O=C(N[C@H](CO)[C@H](O)c1ccc([N+](=O)[O-])cc1)C(Cl)Cl [CHLORAMPHENICOL]
MIC (Bacillus cereus [2]): 3.13 µg/mL (≈ 9.69 µM) | Inhibition (Bacillus cereus [6]): 8 mm

Cc1cc2c(C)c(C)sc2cc1N
Inhibition (Bacillus subtilis [1]): 17 mm | MIC (Bacillus cereus [2]): 500 µg/mL (≈ 2610 µM) | MIC (Candida albicans [8]): 1000 µg/mL (≈ 5230 µM) | MIC (Pseudomonas aeruginosa [3]): inactive | MIC (Escherichia coli [4]): inactive | Inhibition (Candida albicans [9]): 13 mm | MIC (Bacillus subtilis [5]): 500 µg/mL (≈ 2610 µM) | Inhibition (Bacillus cereus [6]): 10 mm

CC1(C)S[C@@H]2[C@H](NC(=O)[C@H](N)c3ccccc3)C(=O)N2[C@H]1C(=O)O [AMPICILLIN]
Inhibition (Bacillus subtilis [1]): 10 mm | MIC (Bacillus cereus [2]): 3.13 µg/mL (≈ 8.96 µM) | MIC (Pseudomonas aeruginosa [11]): 6.25 µg/mL (≈ 17.9 µM) | MIC (Bacillus subtilis [5]): 12.5 µg/mL (≈ 35.8 µM) | Inhibition (Pseudomonas aeruginosa [12]): 12 mm | Inhibition (Escherichia coli [19]): 15 mm | MIC (Escherichia coli [13]): 6.25 µg/mL (≈ 17.9 µM) | Inhibition (Bacillus cereus [6]): 13 mm
